PubChem BioAssay AID342 (DTP/NCI, 2004)
“And” between values parts separate entries of the source, which are not always exact repeats. Identical values can stand only once.

System: Swiss mice, Sarcoma 180 sc, mean tumor weight T/C
Assay: NCI In Vivo Anticancer Drug Screen. Data for tumor model Sarcoma 180 (subcutaneous) in Swiss mice
Conditions: endpoint: mean tumor weight, higher = larger tumour
Method in brief: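 Readout is the ratio of treated-group measurement to vehicle-control measurement (T/C), based on survival or tumor size in mice carrying transplanted tumors.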

[1] = dose: 16.0 mg/kg/injection, schedule: Q01DX007 (ip), vehicle: carboxymethylcellulose (CMC)
[2] = dose: 128.0 mg/kg/injection, schedule: Q01DX007 (ip), vehicle: carboxymethylcellulose (CMC)
[3] = dose: 100.0 mg/kg/injection, schedule: Q01DX007 (sc), vehicle: steriod suspending solution

In the case of `NC(=O)NO`, the T/C [1] was 89 % of control, the T/C (dose: 32.0 mg/kg/injection, schedule: Q01DX007 (ip), vehicle: carboxymethylcellulose (CMC)) was 111 % of control and the T/C (dose: 64.0 mg/kg/injection, schedule: Q01DX007 (ip), vehicle: carboxymethylcellulose (CMC)) was 112 % of control. The T/C [2] was 69 % of control.
`O=C(NC(CO)C(=O)O)C(Cl)Cl` (centres undefined) was tested, and the T/C (dose: 500.0 mg/kg/injection, schedule: Q#A X014 (ip), vehicle: methylcellulose (MC)) was 47 % of control, the T/C (dose: 1000.0 mg/kg/injection, schedule: Q#A X014 (ip), vehicle: methylcellulose (MC)) was 52 % of control and the T/C (dose: 1500.0 mg/kg/injection, schedule: Q#A X014 (ip), vehicle: methylcellulose (MC)) was 60 % of control. For the same compound, the T/C (dose: 2000.0 mg/kg/injection, schedule: Q#A X014 (ip), vehicle: methylcellulose (MC)) was 66 % of control and the T/C (dose: 2500.0 mg/kg/injection, schedule: Q#A X014 (ip), vehicle: methylcellulose (MC)) was 68 % of control.
`c1ccc2nc3c(nc2c1)[nH]c1ccccc13` was tested, and the T/C (dose: 62.5 mg/kg/injection, schedule: Q01DX007 (ip), vehicle: carboxymethylcellulose (CMC)) was 76 % of control, the T/C (dose: 125.0 mg/kg/injection, schedule: Q01DX007 (ip), vehicle: carboxymethylcellulose (CMC)) was 67 % of control and the T/C (dose: 250.0 mg/kg/injection, schedule: Q01DX007 (ip), vehicle: carboxymethylcellulose (CMC)) was 114 % of control.
With `CC(=O)OCC(=O)[C@@]1(O)CC[C@H]2[C@@H]3C[C@H](C)C4=CC(=O)C=C[C@]4(C)[C@H]3[C@@H](O)C[C@@]21C` the T/C (dose: 7.5 mg/kg/injection, schedule: Q01DX007 (sc), vehicle: steriod suspending solution) was 122 % of control, the T/C (dose: 10.0 mg/kg/injection, schedule: Q01DX007 (sc), vehicle: steriod suspending solution) was 59 % of control and the T/C (dose: 11.3 mg/kg/injection, schedule: Q01DX007 (sc), vehicle: steriod suspending solution) was 93 % of control. For the same compound, the T/C (dose: 20.0 mg/kg/injection, schedule: Q01DX007 (sc), vehicle: steriod suspending solution) was 55 % of control, the T/C (dose: 27.0 mg/kg/injection, schedule: Q01DX007 (sc), vehicle: steriod suspending solution) was 41 % of control and the T/C (dose: 40.0 mg/kg/injection, schedule: Q01DX007 (sc), vehicle: steriod suspending solution) was 34 % of control. The T/C (dose: 44.4 mg/kg/injection, schedule: Q01DX007 (sc), vehicle: steriod suspending solution) was 26 % of control, the T/C (dose: 66.6 mg/kg/injection, schedule: Q01DX007 (sc), vehicle: steriod suspending solution) was 39 % of control and the T/C [3] was 40 % of control.
For `Nc1ccc(C(=O)O)c(O)c1`, the T/C (dose: 95.87 mg/kg/injection, schedule: Q01DX007 (ip), vehicle: carboxymethylcellulose (CMC)) was 108 % of control and 121 % of control, the T/C (dose: 306.8 mg/kg/injection, schedule: Q01DX007 (ip), vehicle: carboxymethylcellulose (CMC)) was 44 % of control and the T/C (dose: 511.33 mg/kg/injection, schedule: Q01DX007 (ip), vehicle: carboxymethylcellulose (CMC)) was 57 % of control.
With `ClCc1c2ccccc2c(CCl)c2ccccc12` the T/C (dose: 0.25 mg/kg/injection, schedule: Q01DX007 (ip), vehicle: methylcellulose (MC)) was 95 % of control, the T/C (dose: 0.5 mg/kg/injection, schedule: Q01DX007 (ip), vehicle: methylcellulose (MC)) was 89 % of control and the T/C (dose: 1.0 mg/kg/injection, schedule: Q01DX007 (ip), vehicle: methylcellulose (MC)) was 122 % of control. The T/C (dose: 1.5 mg/kg/injection, schedule: Q01DX007 (ip), vehicle: methylcellulose (MC)) was 72 % of control, the T/C (dose: 1.8 mg/kg/injection, schedule: Q01DX007 (ip), vehicle: other) was 22 % of control and the T/C (dose: 1.8 mg/kg/injection, schedule: Q01DX007 (ip), vehicle: saline) was 113 % of control. For the same compound, the T/C (dose: 2.0 mg/kg/injection, schedule: Q01DX007 (ip), vehicle: methylcellulose (MC)) was 72 % of control, the T/C (dose: 2.6 mg/kg/injection, schedule: Q01DX007 (ip), vehicle: other) was 23 % of control and the T/C (dose: 2.6 mg/kg/injection, schedule: Q01DX007 (ip), vehicle: saline) was 102 % of control. For the same compound, the T/C (dose: 4.0 mg/kg/injection, schedule: Q01DX007 (ip), vehicle: other) was 26 % of control, the T/C (dose: 6.0 mg/kg/injection, schedule: Q01DX007 (ip), vehicle: other) was 17 % of control and the T/C (dose: 9.0 mg/kg/injection, schedule: Q01DX007 (ip), vehicle: saline) was 40 % of control.
With `O=C1c2ccccc2C(=O)c2c1c(O)c1ccccc1c2O` the T/C (dose: 100.0 mg/kg/injection, schedule: Q#A X014 (im), vehicle: other) was 87 % of control, the T/C (dose: 100.0 mg/kg/injection, schedule: Q#A X014 (sc), vehicle: other) was 70 % of control and the T/C (dose: 200.0 mg/kg/injection, schedule: Q#A X014 (im), vehicle: other) was 109 % of control. The T/C (dose: 200.0 mg/kg/injection, schedule: Q#A X014 (sc), vehicle: other) was 66 % of control, the T/C (dose: 300.0 mg/kg/injection, schedule: Q#A X014 (im), vehicle: other) was 114 % of control and the T/C (dose: 300.0 mg/kg/injection, schedule: Q#A X014 (sc), vehicle: other) was 64 % of control. The T/C (dose: 400.0 mg/kg/injection, schedule: Q#A X014 (im), vehicle: other) was 90 % of control, the T/C (dose: 400.0 mg/kg/injection, schedule: Q#A X014 (sc), vehicle: other) was 65 % of control and the T/C (dose: 500.0 mg/kg/injection, schedule: Q#A X014 (oral), vehicle: other) was 72 % of control. The T/C (dose: 750.0 mg/kg/injection, schedule: Q#A X014 (oral), vehicle: other) was 69 % of control.
In the case of `CC(=O)OCC(=O)[C@@]1(O)CC[C@H]2[C@@H]3C[C@H](C)C4=CC(=O)CC[C@]4(C)[C@H]3[C@@H](O)C[C@@]21C`, the T/C (dose: 3.0 mg/kg/injection, schedule: Q#A X014 (sc), vehicle: steriod suspending solution) was 64 % of control, the T/C (dose: 6.25 mg/kg/injection, schedule: Q#A X014 (sc), vehicle: steriod suspending solution) was 77 % of control and the T/C (dose: 12.5 mg/kg/injection, schedule: Q01DX007 (sc), vehicle: steriod suspending solution) was 44 % of control. For the same compound, the T/C (dose: 12.5 mg/kg/injection, schedule: Q#A X014 (sc), vehicle: steriod suspending solution) was 48 % of control, the T/C (dose: 25.0 mg/kg/injection, schedule: Q01DX007 (sc), vehicle: steriod suspending solution) was 37 % of control and the T/C (dose: 25.0 mg/kg/injection, schedule: Q#A X014 (sc), vehicle: steriod suspending solution) was 43 % of control. The T/C (dose: 50.0 mg/kg/injection, schedule: Q01DX007 (sc), vehicle: steriod suspending solution) was 32 % of control, the T/C (dose: 50.0 mg/kg/injection, schedule: Q#A X014 (sc), vehicle: steriod suspending solution) was 28 % of control and the T/C [3] was 25 % of control. The T/C (dose: 200.0 mg/kg/injection, schedule: Q01DX007 (sc), vehicle: steriod suspending solution) was 15 % of control.
In the case of `O=c1[nH]c(=O)n(C2CC(O)C(CO)O2)cc1F` (centres undefined), the T/C (dose: 2.0 mg/kg/injection, schedule: Q01DX007 (ip), vehicle: carboxymethylcellulose (CMC)) was 97 % of control, the T/C (dose: 4.0 mg/kg/injection, schedule: Q01DX007 (ip), vehicle: carboxymethylcellulose (CMC)) was 108 % of control and the T/C (dose: 8.0 mg/kg/injection, schedule: Q01DX007 (ip), vehicle: carboxymethylcellulose (CMC)) was 97 % of control. The T/C (dose: 10.0 mg/kg/injection, schedule: Q#A X014 (ip), vehicle: carboxymethylcellulose (CMC)) was 27 % of control, the T/C (dose: 12.5 mg/kg/injection, schedule: Q#A X014 (ip), vehicle: carboxymethylcellulose (CMC)) was 28 % of control and the T/C [1] was 94 % of control. For the same compound, the T/C (dose: 20.0 mg/kg/injection, schedule: Q01DX007 (ip), vehicle: saline) was 119 % of control, the T/C (dose: 20.0 mg/kg/injection, schedule: Q#A X014 (ip), vehicle: carboxymethylcellulose (CMC)) was 14 % of control and the T/C (dose: 25.0 mg/kg/injection, schedule: Q#A X014 (ip), vehicle: carboxymethylcellulose (CMC)) was 10 % of control. For the same compound, the T/C (dose: 40.0 mg/kg/injection, schedule: Q01DX007 (ip), vehicle: saline) was 86 % of control, the T/C (dose: 40.0 mg/kg/injection, schedule: Q#A X014 (ip), vehicle: carboxymethylcellulose (CMC)) was 4 % of control and the T/C (dose: 80.0 mg/kg/injection, schedule: Q01DX007 (ip), vehicle: carboxymethylcellulose (CMC)) was 29 % of control. The T/C (dose: 80.0 mg/kg/injection, schedule: Q01DX007 (ip), vehicle: saline) was 109 % of control, the T/C (dose: 80.0 mg/kg/injection, schedule: Q#A X014 (ip), vehicle: carboxymethylcellulose (CMC)) was 15 % of control and the T/C (dose: 106.6 mg/kg/injection, schedule: Q01DX007 (ip), vehicle: carboxymethylcellulose (CMC)) was 7 % of control. The T/C [2] was 8 % of control, the T/C (dose: 160.0 mg/kg/injection, schedule: Q01DX007 (ip), vehicle: carboxymethylcellulose (CMC)) was 5 % of control and the T/C (dose: 160.0 mg/kg/injection, schedule: Q01DX007 (ip), vehicle: saline) was 56 % of control.
